US8088746B2, “Bis-modified bicyclic nucleic acid analogs” (Isis Pharmaceuticals, Inc., priority 2006, dated 2012)
Strand notation (5' to 3'): a small letter for the sugar, then the base; units joined by * are phosphorothioate-linked, units joined directly phosphodiester-linked; [ ] holds rarer units or linkages, { } end groups; capitals alone tell only the bases. [cMOE-R-N] = 6-(R)-CH2-O-CH3 BNA nucleoside (4'-CH(CH2OCH3)-O-2' bridge, R configuration) (N: the base); [6'R-Me-BNA] = 6-(R)-CH3 bicyclic nucleoside (R-constrained ethyl); [5'S-Me-BNA] = 5'-(S)-CH3 4'-CH2-O-2' bicyclic nucleoside; [6'S-cMOE] = 6-(S)-CH2-O-CH3 bicyclic nucleoside; e = 2'-O-(2-methoxyethyl) (MOE); l = locked nucleic acid (LNA); k = constrained ethyl (cEt); v = modified nucleoside v; [5mC] = 5-methylcytosine; d = 2'-deoxy (DNA)

How the values were obtained:
[1] = system: PTEN; experiment: 2-14-2 gapped oligomers targeted to PTEN (Example 50), in vivo single injection, liver mRNA; details: 72 hrs
[2] = system: PTEN; experiment: 2-14-2 gapped oligomers targeted to PTEN (Example 42), in vivo single injection, liver mRNA; details: for % UTC: liver mRNA, 72 hrs
[3] = system: PTEN; experiment: 5′-vinyl and LNA gapped oligomers targeted to PTEN (Example 51), in vivo single injection, liver mRNA; details: 64 hrs; for PTEN % UTC: 18 mers, liver mRNA; for ED50: PTEN liver mRNA
[4] = system: RNA complement; experiment: Tm by melting against RNA complement (Example 51); details: 18 mers, melting against the RNA 20 mer (131566), 14 base complementary region
[5] = injected once 60 mg/kg (last dose column)
[6] = injected once, second dose column, printed 60 mg/kg

With “ISIS NO. 394420: MeCeTeGCTAGCCTCTGGATTeTe; 2′-O-MOE 2-14-2 gapped oligomer targeted to PTEN (CTGCTAGCCTCTGGATTT; sugars from the 5' end e2 d14 e2, [5mC] at 1, backbone not given here) [reference compound]” the “% UTC” value ([1]; injected once 2 μmol/kg) was 79%, the “% UTC” value ([1]; injected once 10 μmol/kg) was 26% and the “% UTC” value ([2]; injected once 2 μmol/kg) was 79%. For the same substance, the “% UTC” value ([2]; injected once 10 μmol/kg) was 26%.
For “ISIS NO. 394425: MeClTlGCTAGCCTCTGGATTlTl; 4′-CH2-O-2′ BNA 2-14-2 gapped oligomer targeted to PTEN (CTGCTAGCCTCTGGATTT; sugars from the 5' end l2 d14 l2, [5mC] at 1, backbone not given here) [reference compound]”, the “PTEN % UTC” value ([3]; injected once 1.9 mg/kg) was 100%, the “PTEN % UTC” value ([3]; injected once 19 mg/kg) was 8% and the “PTEN % UTC” value [3, 5] was 4%. For the same substance, the “PTEN % UTC” value [3, 6] was 35%, the ED50 ([3]; injected once) was 4.4 mg/kg and the Tm [4] was 61.6 °C. The “% UTC” value ([2]; injected once 2 μmol/kg) was 11% and the “% UTC” value ([2]; injected once 10 μmol/kg) was 2.1%.
In the case of “ISIS NO. 400521: CSUSGCTAGCCTCTGGATUSUS; 5′-(S)-CH3 BNA 2-14-2 gapped oligomer targeted to PTEN (CUGCTAGCCTCTGGATUU; sugars from the 5' end [5'S-Me-BNA]2 d14 [5'S-Me-BNA]2, backbone and methylation of C not given here)”, the “efficacy, comparison in words” value ([2]; high dose group (10 micromole/Kg)) was “essentially equally efficacious as 394425”, the “% UTC” value ([2]; injected once 2 μmol/kg) was 21.4% and the “% UTC” value ([2]; injected once 10 μmol/kg) was 3.8%.
In the case of “ISIS NO. 400522: CRURGCTAGCCTCTGGATURUR; 6-(R)-CH3 BNA 2-14-2 gapped oligomer targeted to PTEN (CUGCTAGCCTCTGGATUU; sugars from the 5' end [6'R-Me-BNA]2 d14 [6'R-Me-BNA]2, backbone and methylation of C not given here)”, the “% UTC” value ([1]; injected once 2 μmol/kg) was 18% and the “% UTC” value ([1]; injected once 10 μmol/kg) was 4%.
“ISIS NO. 400523: CSUSGCTAGCCTCTGGATUSUS; 6-(S)-CH3 BNA 2-14-2 gapped oligomer targeted to PTEN (CUGCTAGCCTCTGGATUU; sugars from the 5' end k2 d14 k2, backbone and methylation of C not given here)” was tested, and the “% UTC” value ([1]; injected once 2 μmol/kg) was 17% and the “% UTC” value ([1]; injected once 10 μmol/kg) was 4%.
In the case of “ISIS NO. 400524: CRURGCTAGCCTCTGGATURUR; 6-(R)-CH2-O-CH3 BNA 2-14-2 gapped oligomer targeted to PTEN ([cMOE-R-C]*[cMOE-R-U]*dG*dC*dT*dA*dG*dC*dC*dT*dC*dT*dG*dG*dA*dT*[cMOE-R-U]*[cMOE-R-U]; antisense)”, the “% UTC” value ([1]; injected once 2 μmol/kg) was 23% and the “% UTC” value ([1]; injected once 10 μmol/kg) was 4%.
“ISIS NO. 400525: CSUSGCTAGCCTCTGGATUSUS; 6-(S)-CH2-O-CH3 BNA 2-14-2 gapped oligomer targeted to PTEN (CUGCTAGCCTCTGGATUU; sugars from the 5' end [6'S-cMOE]2 d14 [6'S-cMOE]2, backbone and methylation of C not given here)” was tested, and the “% UTC” value ([1]; injected once 2 μmol/kg) was 21% and the “% UTC” value ([1]; injected once 10 μmol/kg) was 3%.
For “ISIS NO. 411027: CvUvGCTAGCCTCTGGATUvUv; 18 mer gapped oligomer targeted to PTEN, subscript v nucleoside illustrated in a drawing (CUGCTAGCCTCTGGATUU; sugars from the 5' end v2 d14 v2, backbone and methylation of C not given here; further chemistry not fully specified)”, the “PTEN % UTC” value ([3]; injected once 1.9 mg/kg) was 89%, the “PTEN % UTC” value ([3]; injected once 19 mg/kg) was 24% and the “PTEN % UTC” value [3, 5] was 7%. For the same substance, the “PTEN % UTC” value [3, 6] was 61%, the ED50 ([3]; injected once) was 7.4 mg/kg and the Tm [4] was 59.9 °C.
